According to US7358064B2, “Kits for measuring cellular transmembrane potential changes” (Molecular Devices Corporation, priority 2001, dated 2008):

Tests used:
[1] = test system: voltage-gated sodium channels; type: cell-based, rat
[2] = Octanol/water partition of DiBAC and DiSBAC dyes, read by absorption spectra; type: physicochemical; conditions: for Absorbance in Octanol / Absorbance in Water: 3 mM DMSO stock partitioned in 1:1 octanol/water; for Absorbance in Octanol: octanol layer; for Absorbance in Water: water layer; for Absorbance in Water/Absorbance in Octanol: 1:1 octanol/water partition; for Relative Values: water/octanol ratio relative to DiBAC1(3) (DiBAC dyes) or DiSBAC1(3) (DiSBAC dyes)
Method: (§1) DiSBAC1(3), DiSBAC2(3), DiSBAC3(3), DiSBAC4(3), DiBAC1(3) and DiBAC4(3) are dissolved in DMSO (3 mM). The DMSO stock solutions are respectively partitioned in 1:1 octanol/water mixture. The concentrations of the oxonol dyes in octanol and water layers are determined by absorption spectra.

P2X2 cells = experiment: FLIPR membrane potential assay, fluorescence response of dyes in P2X2 cells; type: cell-based; conditions: for Fluorescence enhancement by 10 μM ATP stimulation (in folds) / Response speed: P2X2 cells, FLIPR; for Response speed: ATP stimulation; for Response to membrane potential change (speed, in words): compared with other DiBAC/DiSBAC dyes; for Signal strength: compared with other members of the DiBAC and DiSBAC family, FLIPR and other fluorescence devices
Description: This specific example illustrates how to use DiSBA1(3) in P2X2 cells in combination with the FLIPR™ fluorescent imaging plate reader sold by Molecular Devices Corp. of Sunnyvale, Calif. P2X2 cells are 1321 N1 astrocytoma cells transfected to overexpress the purinergic P2X2 ligand-gated ion channel. P2X2 belongs to a class of purinergic ion channels that pass calcium and sodium in response to purine, including adenosine 5′-triphosphate (ATP). P2X2 cells are propagated and maintained in DME (high glucose), 10% FCS, 1× Pen/Strep and 2 mM L-glutamine. Doubling time is approximately 36 hours. P2X2 cells should be split at a 1 to 2 ratio upon confluence. The cells should be carried for no more than 20 passages. When approaching this limit, a new frozen vial of cells should be resurrected. Following is a typical kit procedure: • 1. Plate 40,000 P2X2 cells in 100 μL per well for 96 well plates or 10,000 P2X2 cells in 25 μL per well for 384 well plates for overnight.
2. Prepare 1× Loading Buffer. • 2.1 To prepare the 1× Assay Buffer, pipette 10 mL of 10× Reagent Buffer (1× Hanks' Balance Saline Solution+20 mM HPEPES, pH 7.40) and dilute in 90 mL of distilled water. Adjust pH to 7.4 using 1.0 N NaOH and/or 1.0 N HCl. • 2.2 To prepare 10 mM stock solution of DiSBAC1(3), dissolve 3.8 mg DiSBAC1(3) in 1 mL DMSO • 2.3 To prepare 10% pluronic acid, dissolve 400 mg pluronic acid in 4 mL water. Heat to 37° C. to complete dissolution. • 2.4 To prepare 1× Loading Buffer, add 30 μL of stock DiSBAC1(3), 8 μL 10% pluronic acid, and 20.0 mg DB71 in the 1× FLIPR assay buffer. • 3. Load Cells with 1× Loading Buffer • 4. Remove cell plates from the incubator • 5. Add 100 μL of 1× Loading Buffer per well of 96-well plates or 25 μL per well of 384-well plates. • 6. Incubate plates at 37° C. for 30 minutes. • 7. Run the FLIPR Membrane Potential Assay • 7.1 Make 5× compound plate prior to running the FLIPR assay. Dissolve 27.5 mg of ATP (Sigma Cat# A3377) in 1 mL of sterile water to make a 50 mM stock solution. […] Choose p2x2.fcf for experimental setup in the FLIPR software. Set up the appropriate experiment parameters. • 7.3 After incubation, transfer the plates directly to FLIPR and begin the Membrane Potential Assay. • 8. Run FLIPR and perform data analysis.
DiSBAC1(3), DiSBAC2(3), DiSBAC3(3), DiSBAC4(3), DiBAC1(3) and DiBAC4(3) are dissolved in DMSO (1 mM). The stock solutions are respectively used to assay membrane potential changes in the P2X2 cells in combination with FLIPR™ as described in Example 2.

[3] = type: physicochemical; conditions: compared with the other oxonol dyes
Method: as §1

[4] = molecular target: T1, purinergic P2X2 ligand-gated ion channel (Homo sapiens, UniProt Q9UBL9); experiment: ATP dose response in FLIPR membrane potential assay with DiSBAC1(3); type: cell-based; conditions: ATP dose response in P2X2 cells loaded with DiSBAC1(3); worded as 'should be approximately'
T1 construct: expressed in transfected cells; host or cells: 1321N1 astrocytoma cells
T1 sequence (Q9UBL9 1-471): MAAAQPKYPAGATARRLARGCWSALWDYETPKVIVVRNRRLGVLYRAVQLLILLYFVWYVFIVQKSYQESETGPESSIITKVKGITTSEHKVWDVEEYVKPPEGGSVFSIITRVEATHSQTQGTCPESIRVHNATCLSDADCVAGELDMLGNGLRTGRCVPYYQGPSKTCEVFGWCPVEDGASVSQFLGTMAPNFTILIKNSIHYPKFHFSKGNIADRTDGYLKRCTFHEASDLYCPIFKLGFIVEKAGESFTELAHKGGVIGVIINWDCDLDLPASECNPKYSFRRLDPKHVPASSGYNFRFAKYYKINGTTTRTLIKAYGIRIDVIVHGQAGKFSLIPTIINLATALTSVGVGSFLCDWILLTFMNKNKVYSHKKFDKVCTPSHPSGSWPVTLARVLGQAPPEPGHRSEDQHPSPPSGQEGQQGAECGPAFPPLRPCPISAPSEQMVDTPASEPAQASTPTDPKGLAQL

PC12 = experiment: DiSBAC1(3) as fluorescent indicator of transmembrane potential depolarization of PC12 cells; type: cell-based, rat; conditions: 75 mM potassium gluconate, 2.5 μM dye, 200 μM Direct Blue 71

SMILES	Change in membrane potential (fluorescence increase) upon potassium addition [1]	Absorbance in Octanol [2]	Absorbance in Water [2]	Absorbance in Water/Absorbance in Octanol [2]	Relative Values [2]	Fluorescence enhancement by 10 μM ATP stimulation (in folds) (P2X2 cells)	Response speed (P2X2 cells)	Response to membrane potential change (speed, in words) (P2X2 cells)	Response to membrane potential change (speed, in words) (P2X2 cells; listed as DiBAC1 (3))	Signal strength (P2X2 cells)	Water solubility [3]	EC50 [4]	Hydrophilicity ([2]; compared with the other oxonol dyes)	Sensitivity to membrane potential change (P2X2 cells; compared with the rest of the DiSBACs)	Fluorescence change on cell depolarization (PC12)
NC1=N[C@H](O)[C@H]2[C@H]3O[C@]4(O)O[C@@H]([C@@H](O)[C@@]2(N1)[C@@H]4O)[C@]3(O)CO [TTX, tetrodotoxin]	smaller increase in fluorescence	–	–	–	–	–	–	–	–	–	–	–	–	–	–
CCN1C(=O)C(=CC=Cc2c(O)n(CC)c(=S)n(CC)c2=O)C(=O)N(CC)C1=S [DiSBAC2(3)]	–	2.187	0.01143	0.0052	0.078	38.6 folds	moderate	–	–	–	–	–	–	–	–
CN1C(=O)C(=CC=Cc2c(O)n(C)c(=O)n(C)c2=O)C(=O)N(C)C1=O [DiBAC1(3)]	–	0.3104	1.297	4.179	1	3.7 folds	fast	much faster response	faster response	stronger signal	greater water solubility	–	–	–	–
CCCN1C(=O)C(=CC=Cc2c(O)n(CCC)c(=S)n(CCC)c2=O)C(=O)N(CCC)C1=S [DiSBAC3(3)]	–	4.331	0.002256	0.0005	0.0077	14.5 folds	slow	–	–	–	–	–	–	–	–
CCCCN1C(=O)C(=CC=Cc2c(O)n(CCCC)c(=S)n(CCCC)c2=O)C(=O)N(CCCC)C1=S [DiSBAC4(3)]	–	3.226	0.003318	<0.0010	<0.0077	2.3 folds	slow	–	–	–	–	–	–	–	–
CCCCN1C(=O)C(=CC=Cc2c(O)n(CCCC)c(=O)n(CCCC)c2=O)C(=O)N(CCCC)C1=O [DiBAC4(3)]	–	2.854	0.002501	0.00088	0.00021	3.3 folds	slow	–	–	–	–	–	–	–	–
Nc1ncnc2c1ncn2[C@@H]1O[C@H](COP(=O)(O)OP(=O)(O)OP(=O)(O)O)[C@@H](O)[C@H]1O [ATP, adenosine 5′-triphosphate]	–	–	–	–	–	–	–	–	–	–	–	0.01 to 0.1 µM	–	–	–
CN1C(=O)C(=CC=Cc2c(O)n(C)c(=S)n(C)c2=O)C(=O)N(C)C1=S [DiSBAC1(3), Bis-(1,3-dimethylthiobarbituric acid)trimethine oxonol]	–	0.9126	0.06147	0.0674	1	108.5 folds	fast	faster response	–	stronger signal	–	–	much more hydrophilic	much more sensitive	increased DiSBAC1(3) fluorescence
